Results taken from US20260102501A1, “ANTI-CANCER NUCLEAR HORMONE RECEPTOR-TARGETING COMPOUNDS” (Nuvation Bio Inc., priority 2022, published 2026).

Assays:
[1] = molecular target: T1, ligand binding domain of the glucocorticoid receptor (HEK293 cells stably expressing) (Homo sapiens, UniProt P04150); experiment: GR antagonism assay (luciferase reporter)
T1 sequence (P04150 524-758 limits assumed): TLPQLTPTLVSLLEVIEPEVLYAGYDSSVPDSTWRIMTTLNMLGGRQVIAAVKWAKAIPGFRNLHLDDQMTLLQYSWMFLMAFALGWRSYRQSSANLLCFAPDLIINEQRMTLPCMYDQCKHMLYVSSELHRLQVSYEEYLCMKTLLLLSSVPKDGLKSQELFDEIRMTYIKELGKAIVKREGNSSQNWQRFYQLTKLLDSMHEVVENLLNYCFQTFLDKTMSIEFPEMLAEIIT

[2] = molecular target: T2, Progesterone PR-B receptors from human breast carcinoma T47D cells (Homo sapiens, UniProt P06401); experiment: PR binding assay ([3H] Progesterone displacement)
T2 sequence (P06401 1-933): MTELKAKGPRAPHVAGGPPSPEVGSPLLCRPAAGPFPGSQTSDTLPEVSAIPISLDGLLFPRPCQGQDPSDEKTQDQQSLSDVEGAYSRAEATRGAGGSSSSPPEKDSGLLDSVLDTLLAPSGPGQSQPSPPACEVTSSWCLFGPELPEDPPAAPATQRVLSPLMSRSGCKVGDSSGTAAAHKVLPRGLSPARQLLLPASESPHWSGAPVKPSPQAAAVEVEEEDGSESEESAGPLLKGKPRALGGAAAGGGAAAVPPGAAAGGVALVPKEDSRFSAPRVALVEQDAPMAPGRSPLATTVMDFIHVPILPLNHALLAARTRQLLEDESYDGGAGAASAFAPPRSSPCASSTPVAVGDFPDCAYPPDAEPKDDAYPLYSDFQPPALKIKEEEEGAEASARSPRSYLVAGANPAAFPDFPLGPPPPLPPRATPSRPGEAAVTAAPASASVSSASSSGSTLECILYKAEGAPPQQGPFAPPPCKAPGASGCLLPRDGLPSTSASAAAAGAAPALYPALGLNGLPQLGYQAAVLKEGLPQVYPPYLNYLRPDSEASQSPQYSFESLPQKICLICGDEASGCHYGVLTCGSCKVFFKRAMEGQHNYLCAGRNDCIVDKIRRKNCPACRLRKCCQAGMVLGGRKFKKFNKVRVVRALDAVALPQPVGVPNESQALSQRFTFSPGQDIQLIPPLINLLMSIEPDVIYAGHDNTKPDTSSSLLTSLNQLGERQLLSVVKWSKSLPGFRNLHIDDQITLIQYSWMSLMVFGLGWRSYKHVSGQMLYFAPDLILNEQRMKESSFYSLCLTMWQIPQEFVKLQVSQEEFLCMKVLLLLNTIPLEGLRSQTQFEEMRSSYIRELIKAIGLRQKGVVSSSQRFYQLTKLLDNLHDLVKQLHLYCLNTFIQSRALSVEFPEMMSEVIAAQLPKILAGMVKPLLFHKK

LNCap cells = experiment: Cell viability assay (CellTiterGlo); format: cell-based; conditions: Homo sapiens, 144 h, 6 days incubation, CellTiterGlo, read-out: LNCap (IC50)
[3] = molecular target: T3, AR (cytosol from LnCaP cells) (Homo sapiens, UniProt P10275, T878A); experiment: AR binding assay (3H-R1881 displacement)
T3 sequence (P10275 1-920 T878A): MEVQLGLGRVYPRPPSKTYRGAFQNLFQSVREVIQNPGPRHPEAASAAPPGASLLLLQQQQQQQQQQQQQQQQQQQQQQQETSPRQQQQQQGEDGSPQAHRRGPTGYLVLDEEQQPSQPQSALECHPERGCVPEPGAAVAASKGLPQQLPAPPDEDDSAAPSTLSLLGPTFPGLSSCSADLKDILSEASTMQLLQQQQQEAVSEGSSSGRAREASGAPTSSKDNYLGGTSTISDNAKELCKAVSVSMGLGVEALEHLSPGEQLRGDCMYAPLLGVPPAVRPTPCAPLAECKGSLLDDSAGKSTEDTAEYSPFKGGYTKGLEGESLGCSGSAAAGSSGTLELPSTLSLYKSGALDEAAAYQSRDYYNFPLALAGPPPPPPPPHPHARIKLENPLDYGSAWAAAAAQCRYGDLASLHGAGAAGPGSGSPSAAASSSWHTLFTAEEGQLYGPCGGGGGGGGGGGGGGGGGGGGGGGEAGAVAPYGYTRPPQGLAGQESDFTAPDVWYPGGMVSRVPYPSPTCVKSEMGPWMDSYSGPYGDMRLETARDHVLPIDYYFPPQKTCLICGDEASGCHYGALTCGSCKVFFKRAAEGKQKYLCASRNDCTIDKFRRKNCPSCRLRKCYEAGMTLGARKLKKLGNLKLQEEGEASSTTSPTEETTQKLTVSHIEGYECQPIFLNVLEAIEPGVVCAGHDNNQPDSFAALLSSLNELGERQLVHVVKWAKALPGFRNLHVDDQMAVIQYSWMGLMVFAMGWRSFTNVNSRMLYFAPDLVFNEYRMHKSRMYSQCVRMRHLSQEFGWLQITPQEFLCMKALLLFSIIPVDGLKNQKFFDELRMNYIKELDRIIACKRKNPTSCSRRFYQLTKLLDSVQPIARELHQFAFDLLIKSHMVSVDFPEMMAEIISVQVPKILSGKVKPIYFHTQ
Method: The plate was then centrifuged at 3000 rpm for 30 minutes at 4° C.

## CC[C@@]1(O)C(=O)OCc2c1cc1n(c2=O)Cc2cc3c(CN(C)C)c(OCC4CCN(C(=O)CN(C)c5ccc([C@H]6C[C@@]7(C)[C@@H](CC[C@]7(OC(C)=O)C(C)=O)[C@@H]7CCC8=CC(=O)CCC8=C76)cc5)CC4)ccc3nc2-1 [Compound No. 19, (8S,11R,13S,14S,17R)-17-Acetyl-11-(4-((2-(4-((((S)-10-((dimethylamino)methyl)-4-ethyl-4-hydroxy-3,14-dioxo-3,4,12,14-tetrahydro-1H-pyrano[3′,4′:6,7]indolizino[1,2-b]quinolin-9-yl)oxy)methyl)-piperidin-1-yl)-2-oxoethyl)(methyl)amino)phenyl)-13-methyl-3-oxo-2,3,6,7,8,11,12,13,14,15,16,17-dodeca-hydro-1H-cyclopenta[a]phenanthren-17-yl acetate]
[1]
  IC50: 10 to 100 nM
[2]
  IC50: < 10 nM
LNCap cells
  IC50: 101 to 1000 nM
[3]
  IC50: 10 to 100 nM
